Laboratory results reported in BindingDB's records for patent US20240043470 (Cornell University, 2024).

Tests used:
[1] = target: T1, Proteasome subunit beta type-8 (Homo sapiens, UniProt P28062); assay: IC50 Determination
T1 sequence (P28062 whole entry): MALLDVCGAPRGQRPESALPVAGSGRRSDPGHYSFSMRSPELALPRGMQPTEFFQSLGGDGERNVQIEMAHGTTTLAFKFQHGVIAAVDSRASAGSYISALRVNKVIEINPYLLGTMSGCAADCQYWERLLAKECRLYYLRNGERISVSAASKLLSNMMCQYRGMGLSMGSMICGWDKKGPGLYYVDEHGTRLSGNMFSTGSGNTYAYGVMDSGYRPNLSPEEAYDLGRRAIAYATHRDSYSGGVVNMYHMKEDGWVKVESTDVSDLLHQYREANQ

[2] = target: T2, Proteasome subunit beta type-5 (Homo sapiens, UniProt P28074); assay: IC50 Determination
T2 sequence (P28074 whole entry): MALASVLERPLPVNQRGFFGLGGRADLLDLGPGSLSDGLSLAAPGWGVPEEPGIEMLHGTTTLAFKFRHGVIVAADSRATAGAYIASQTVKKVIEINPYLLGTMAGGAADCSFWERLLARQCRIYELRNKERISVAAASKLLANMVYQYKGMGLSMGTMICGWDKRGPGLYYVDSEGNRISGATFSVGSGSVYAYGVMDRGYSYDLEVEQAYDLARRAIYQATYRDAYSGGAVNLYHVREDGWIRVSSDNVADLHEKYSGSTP

Compound	IC50 [1]	IC50 [2]
CC(=O)N[C@H]1Cc2cccc(c2)Oc2ccc(cc2)C[C@@H](C(=O)NCc2ccccc2F)NC(=O)[C@H](CC(=O)N2CCC[C@@H]2c2ccccc2)NC1=O [US20240043470, Compound 2-04]	9.1 µM	30.7 µM
CC(=O)NC1Cc2cccc(c2)Oc2ccc(cc2)CC(C(=O)NCc2ccccc2F)NC(=O)C(CC(=O)N2CCC[C@@H]2c2ccccc2)NC1=O (stereo partly specified) [US20240043470, Compound 2-05]	35.9 µM	88.4 µM
O=C(N[C@H]1Cc2cccc(c2)Oc2ccc(cc2)C[C@@H](C(=O)NCc2ccccc2F)NC(=O)[C@H](CC(=O)N2CCC[C@@H]2c2ccccc2)NC1=O)c1ccccc1 [US20240043470, Compound 2-06]	19.3 µM	
O=C(NC1Cc2cccc(c2)Oc2ccc(cc2)CC(C(=O)NCc2ccccc2F)NC(=O)C(CC(=O)N2CCC[C@@H]2c2ccccc2)NC1=O)c1ccccc1 (stereo partly specified) [US20240043470, Compound 2-07]	26.8 µM	> 100 µM
CC(=O)N[C@H]1CCCCOc2cccc(c2)C[C@@H](C(=O)NCC(F)(F)F)NC(=O)[C@H](CCc2ccccc2)NC1=O [US20240043470, Compound 3-03]		11.9 µM
O=C1CCc2cccc(c2)OCCCC[C@@H](C(=O)NCc2ccccc2F)NC(=O)[C@H](CC(=O)N2CCC[C@@H]2c2ccccc2)N1 [US20240043470, Compound 3-18]	3 µM	44.3 µM
O=C1N[C@@H](CC(=O)N2CCCC2)C(=O)N[C@H](C(=O)NCc2cccc3ccccc23)CCCCCCCCC[C@H]1Cc1ccccc1 [US20240043470, Compound 4-03]	3.52 µM	
